# Measured values: patent publication US20170166974A1, “METHOD FOR THE TREATMENT OF MULTIPLE MYELOMA” (Erasmus University Medical CEnter Rotherdam, priority 2014, published 2017)
# Test system: multiple myeloma patients
# Assay: Survival analysis (PFS and OS) of multiple myeloma patients by molecular cluster, HOVON-65/GMMG-HD4 phase III trial, PAD vs VAD
# Assay type: in vivo, human
# Protocol: Survival analysis was performed on a group of 301 MM patients, treated with Bortezomib (treated with PAD, a combination of bortezomib, adriamycin, and dexamethasone)) or conventional therapy (treated with VAD, a combination of vincristine, adriamycin, and dexamethasone). The patient group was stratified into ten clusters (Table 1).
# A total number of 833 patients were included in a large prospective, randomized, phase III trial (HOVON-65/GMMG-HD4). Patients were randomly assigned to three cycles of induction treatment with vincristine, doxorubicin, and dexamethasone (VAD), or Bortezomib, doxorubicin, and dexamethasone (PAD). Both groups received high-dose melphalan with autologous stem-cell rescue followed by maintenance treatment with thalidomide (group assigned to VAD) or Bortezomib (group assigned to PAD) for 2 years (Sonneveld et al., J. Clin. Oncol. Vol. 30, 24:2946-2955, 2012).
# The gene expression dataset GSE19784 was used, derived from patients included in the HOVON-65/GMMG-HD4 trial (Broyl et al., Blood 2010 116:2543-2553). A total number of 320 patients were included in the molecular classification and follow-up data were available for 319 patients. Clusters with less than ten patients were not included in this study, the total number of patients was, therefore, 301 (Table 1). Progression-free survival (PFS) was calculated from randomization until progression, relapse or death, whichever came first. Patients who received a non-myeloablative allogeneic stem cell transplantation (AlloSCT) were censored at the date of AlloSCT. Overall survival (OS) was measured from randomization until death from any cause. Patients alive at the date of last contact were censored. The median follow-up was 41 months. Survival analysis was performed using the SPSS software. Kaplan
# Meier analysis was performed using the log rank test to assess for significance in survival time between clusters.
smiles,measurement,setting,value
CC(C)C[C@H](NC(=O)[C@H](Cc1ccccc1)NC(=O)c1cnccn1)B(O)O [Bortezomib],median PFS,CD-2 cluster,32 months
same,"difference in median PFS, conventional vs Bortezomib",CTA cluster,no difference
same,median OS,MF cluster,54 months
same,median PFS,MF cluster,27 months
same,PFS longer than in conventional treatment group,MS cluster,6 months
same,median OS,MS cluster,> 41 months
same,median PFS,Myeloid cluster,32 months
same,median PFS,NF-κB cluster,32 months
same,median OS,PR cluster,22 months
same,median PFS,PR cluster,19 months
same,"difference in median PFS, conventional vs Bortezomib",hyperdiploid cluster,no difference
